Assay results taken from patent publication US20250144067A1, “PERSONALIZED STARVATION THERAPY FOR CANCER” (Faeth Therapeutics, Inc., priority 2021, published 2025).
Structures can show the parent of a compound that is named as a salt. Where two headings read alike, the source gives them in different places.

Key:
[1] = tested on: NCI-H292 lung cancer cells; assay: FDA drug screening, complete media vs cholesterol-free media without statin (TABLE 1); assay type: cell-based, human
[2] = tested on: NCI-H292 lung cancer cells; assay: FDA drug screening, complete media vs cholesterol-free media with simvastatin (TABLE 2); assay type: cell-based, human
[3] = Complete minus Cholesterol-free, greater than 0 enhanced anti-cancer activity, about 0 neutral, below 0 antagonist
[4] = NCI-H292 cells, FDA drug library screen, cholesterol-free media without statin
[5] = NCI-H292 cells, FDA drug library screen, complete media
[6] = NCI-H292 cells, FDA drug library screen, cholesterol-free media with simvastatin 0.04 μM
[7] = complete media vs cholesterol-free media + simvastatin (0.04 μM), >0 enhanced anti-cancer activity, about 0 neutral, <0 antagonist
[8] = Complete minus Cholesterol-free, >0 enhanced anti-cancer activity, about 0 neutral, <0 antagonist
[9] = NCI-H292 cells, cholesterol-free media without statin, FDA drug library screen
[10] = NCI-H292 cells, complete media, FDA drug library screen
[11] = NCI-H292 cells, cholesterol-free media with simvastatin 0.04 μM, cell growth value in FDA drug screen
[12] = NCI-H292 cells, complete media, cell growth value in FDA drug screen
[13] = complete media minus cholesterol-free media + simvastatin, >0 enhanced anti-cancer activity, about 0 neutral, <0 antagonist
[14] = NCI-H292 cells, cholesterol-free media without statin
[15] = NCI-H292 cells, cholesterol-free media with simvastatin 0.04 μM, FDA drug library screen (TABLE 2)
[16] = complete media minus cholesterol-free media + simvastatin (0.04 μM), >0 enhanced anti-cancer activity, about 0 neutral, <0 antagonist
[17] = complete vs cholesterol-free media, >0 enhanced anti-cancer activity, about 0 neutral, <0 antagonist
[18] = NCI-H292 cells, complete media, FDA drug library screen (TABLE 2)
[19] = NCI-H292 cells, drug in cholesterol-free media with simvastatin 0.04 μM

CCOC(=O)C(C)(C)Oc1ccc(Cl)cc1 [Clofibrate]
Difference [1, 3]: −0.12
Cholesterol-free [1, 4]: 1.138
Complete [1, 5]: 1.018
Cholesterol-free media + simvastatin (0.04 μM) [2, 6]: 1.786
Complete Media [2, 5]: 1.654
Difference [2, 7]: −0.13

CC(C)C(=O)c1c(C(C)C)nn2ccccc12 [Ibudilast]
Difference [1, 8]: 0.04
Cholesterol-free [1, 9]: 1.126
Complete [1, 10]: 1.165
Cholesterol-free media + simvastatin (0.04 μM) [2, 11]: 1.245
Complete Media [2, 12]: 1.273
Difference [2, 13]: 0.03

c1ccc(-c2ccc(C(c3ccccc3)n3ccnc3)cc2)cc1 (stereo not shown) [Bifonazole]
Cholesterol-free [1, 14]: 1.572
Complete ([1]; NCI-H292 cells, complete media): 1.228
Difference ([1]; complete vs cholesterol-free media, greater than 0 enhanced anti-cancer activity, about 0 neutral, below 0 antagonists): −0.34
Cholesterol-free media + simvastatin (0.04 μM) [2, 6]: 0.4379
Complete Media [2, 5]: 0.7844
Difference [2, 13]: 0.35

Ibutilide (fumarate)
Difference ([1]; Complete minus Cholesterol-free, greater than 0 enhanced anti-cancer activity, about 0 neutral, below 0 antagonists): −1.13
Cholesterol-free ([1]; NCI-H292 cells in cholesterol-free media without statin): 1.969
Complete ([1]; NCI-H292 cells in complete media): 0.8391
Cholesterol-free media + simvastatin (0.04 μM) [2, 15]: 1.045
Difference [2, 16]: −0.02

N#Cc1cc(-c2n[nH]c(-c3ccncc3)n2)ccn1 [Topiroxostat]
Cholesterol-free [1, 9]: 0.764
Complete [1, 10]: 1.603
Difference [1, 17]: 0.84
Cholesterol-free media + simvastatin (0.04 μM) [2, 15]: 1.544
Complete Media [2, 18]: 1.543
Difference [2, 16]: 0.00

Nc1nc2[nH]cc(CCc3ccc(C(=O)N[C@@H](CCC(=O)O)C(=O)O)cc3)c2c(=O)[nH]1 [Pemetrexed (disodium)]
Difference [1, 8]: −0.19
Cholesterol-free [1, 14]: 0.3169
Complete ([1]; NCI-H292 cells, complete media): 0.1251
Cholesterol-free media + simvastatin (0.04 μM) [2, 11]: 0.1199
Complete Media [2, 12]: 0.1499
Difference [2, 13]: 0.03

Nc1nc2ccc(OC(F)(F)F)cc2s1 [Riluzole hydrochloride]
Difference [1, 8]: −0.27
Cholesterol-free [1, 14]: 1.152
Complete ([1]; NCI-H292 cells, complete media): 0.8769
Cholesterol-free media + simvastatin (0.04 μM) [2, 11]: 0.9663
Complete Media [2, 12]: 0.9877
Difference [2, 13]: 0.02

[H]/N=C(\N/C(=N/[H])Nc1ccc(Cl)cc1)NC(C)C [Proguanil]
Difference [1, 3]: −0.09
Cholesterol-free [1, 4]: 1.148
Complete [1, 5]: 1.059
Cholesterol-free media + simvastatin (0.04 μM) [2, 19]: 1.355
Difference [2, 7]: −0.18

Nc1ccc(C(=O)NCC(=O)[O-])cc1.[Na+] [Aminohippurate (sodium)]
Difference ([1]; Complete minus Cholesterol-free, […]): −0.25
Cholesterol-free [1, 14]: 1.249
Complete ([1]; NCI-H292 cells, complete media): 0.9961
Cholesterol-free media + simvastatin (0.04 μM) [2, 19]: 1.368
Complete Media ([2]; NCI-H292 cells, drug in complete media): 1.199
Difference ([2]; complete media vs cholesterol-free media + simvastatin (0.04 μM), […]): −0.17

C=CC[N+]1([C@H]2C[C@H]3[C@@H]4CC[C@H]5C[C@H](O)[C@@H](N6CCOCC6)C[C@]5(C)[C@H]4CC[C@]3(C)[C@H]2OC(C)=O)CCCC1.[Br-] [Rocuronium (Bromide)]
Cholesterol-free [1]: 0.9624
Complete [1]: 0.9092
Difference [1]: −0.05
Cholesterol-free media + simvastatin (0.04 μM) [2]: 0.8493
Complete Media [2]: 1.097
Difference [2]: 0.25

O=C1CCCC(=O)C1C(=O)c1ccc(C(F)(F)F)cc1[N+](=O)[O-] [Nitisinone]
Difference [1, 3]: −0.08
Cholesterol-free [1, 4]: 0.8746
Complete [1, 5]: 0.7963
Cholesterol-free media + simvastatin (0.04 μM) [2, 6]: 0.9427
Complete Media [2, 5]: 1.188
Difference [2, 13]: 0.25

N#Cc1ccc2c(c1)N(CCCN1CCC(O)CC1)c1ccccc1S2 [Pericyazine]
Difference [1, 3]: −0.09
Cholesterol-free [1, 4]: 0.9265
Complete [1, 5]: 0.8353
Cholesterol-free media + simvastatin (0.04 μM) [2, 15]: 1.378
Complete Media [2, 18]: 1.353
Difference [2, 16]: −0.02

Cc1cc(Nc2ncc(Cl)c(Nc3ccccc3S(=O)(=O)C(C)C)n2)c(OC(C)C)cc1C1CCNCC1 [Ceritinib]
Difference [1, 8]: −0.05
Cholesterol-free [1, 9]: 0.1038
Complete [1, 10]: 0.05759
Cholesterol-free media + simvastatin (0.04 μM) [2, 15]: 0.1163
Complete Media [2, 18]: 0.0662
Difference [2, 16]: 0.05

CC(C)Oc1ccc2c(=O)c(-c3ccccc3)coc2c1 [Ipriflavone]
Cholesterol-free [1, 9]: 0.6871
Complete [1, 10]: 1.135
Difference [1, 17]: 0.45
Cholesterol-free media + simvastatin (0.04 μM) [2, 15]: 1.029
Complete Media [2, 18]: 1.016
Difference [2, 16]: −0.01
